# Assay results reported in US6399614B1, “1-(N-phenylaminoalkyl)piperazine derivatives substituted at position 2 of the phenyl ring” (Recordati S.A. Chemical and Pharmaceutical Company, priority 1997, dated 2002).
# pKi: −log10 of the molar value. Read-outs that look alike come from different tables or passages of the source.
# Key:
# [1] = biological target: T1, human 5-HT1A serotonergic receptor (Homo sapiens, UniProt P08908); experiment: Radioreceptor binding, recombinant human 5-HT1A receptors ([3H]8-OH-DPAT, HeLa membranes); settings: recombinant human receptor, [3H]8-OH-DPAT; Ki from IC50 by Cheng & Prusoff; read-out: Binding affinity for the 5-HT1A receptor, Ki
# T1 construct: expressed in transfected cells; host or cells: HeLa
# T1 sequence (P08908 1-422): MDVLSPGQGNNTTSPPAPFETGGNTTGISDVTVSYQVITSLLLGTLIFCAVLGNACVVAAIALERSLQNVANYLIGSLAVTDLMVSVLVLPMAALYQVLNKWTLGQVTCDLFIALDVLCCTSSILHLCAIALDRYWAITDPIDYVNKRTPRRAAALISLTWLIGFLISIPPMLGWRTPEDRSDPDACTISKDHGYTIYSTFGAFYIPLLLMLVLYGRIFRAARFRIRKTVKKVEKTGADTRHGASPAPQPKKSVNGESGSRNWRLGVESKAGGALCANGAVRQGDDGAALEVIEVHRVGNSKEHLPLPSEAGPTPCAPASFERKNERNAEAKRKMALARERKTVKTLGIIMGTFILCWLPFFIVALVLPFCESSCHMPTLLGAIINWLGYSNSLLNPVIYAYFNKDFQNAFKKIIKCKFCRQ
# In short: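 Membranes from HeLa cells stably transfected with human 5-HT1A clone G-21 incubated 30 min at 30° C with 0.2-1 nM [3H]8-OH-DPAT in 50 mM Tris HCl pH 7.4, 2.5 mM MgCl2, 10 μM pargiline; nonspecific binding with 10 μM 5-HT. Filtration assay; IC50 from curve fitting converted to Ki by Cheng-Prusoff.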
# [2] = test system: rhythmic bladder voiding contractions; experiment: Volume-induced rhythmic bladder voiding contractions in anaesthetized rats; assay type: in vivo, rat; settings: Rattus norvegicus; for ED (10 min disappearance of contractions): read-out: ED10 min; for ED50: read-out: ED50 (frequency)
# Description: Female Sprague Dawley rats weighing 225-275 g (Crl: CDo BR, Charles River Italia) were used. The animals were housed with free access to food and water and were maintained on a forced 12 h alternating light-dark cycle at 22-24° C. for at least one week, except during the experiment. The activity on the rhythmic bladder voiding contractions was evaluated according to the method of Dray (J. Pharmacol. Methods, 13:157, 1985), with some modifications as in Guarneri (Pharmacol. Res., 27:173, 1993). Briefly, rats were anesthetized by subcutaneous injection of 1.25 g/kg (5 ml/kg) urethane, after which the urinary bladder was catheterized via the urethra using PE 50 polyethylene tubing filled with physiological saline. The catheter was tied in place with a ligature around the external urethral orifice and was connected with conventional pressure transducers (Statham P23 ID/P23 XL). […] The bladder was then filled via the recording catheter by incremental volumes of warm (37° C.) saline until reflex bladder voiding contractions occurred (usually 0.8-1.5 ml). For intravenous (i.v.) injection of bioactive compounds, PE 50 polyethylene tubing filled with physiological saline was inserted into the jugular vein. From the cystometrogram, the number of contractions recorded 15 min before (basal values) and after treatment, as well as the mean amplitude of these contractions (mean height of the peaks in mmHg) was evaluated.
# Since most compounds produced an effect that was relatively rapid in onset and led to a complete cessation of bladder contractions, bioactivity was conveniently estimated by measuring the duration of bladder quiescence (i.e., the duration of time during which no contractions occurred). The number of animals tested showing a reduction in the number of contractions >30% of that observed in the basal period was also recorded.
# Also computed in this manner were extrapolated doses which induced a reduction of the number of contractions of greater than 30% in 50% of treated rats (ED50, frequency) by the method of Bliss (Bliss C. I., Quart. J. Pharm. Pharmacol. 11, 192-216, 1938). After the suppressive effects of drug injection wore off, the height of the contractile peaks was compared with the height of the peaks previously recorded after the control intravenous administration of vehicle. The potency of the tested compounds (ED50 value: the extrapolated doses inducing a 30% reduction of amplitude of the contractions in 50% of treated rats) was evaluated on a quantal basis by the method of Bliss (Bliss C. I., Quart. J. Pharm. Pharmacol. 11, 192-216, 1938).
# urinary bladder = experiment: Cystometric parameters (cystometrogram) in conscious rats; assay type: in vivo, rat; settings: for BVC after treatment / MP after treatment: mean ± S.E.; for change in vivo at 0.3 mg/kg / change in vivo at 1 mg/kg: Rattus norvegicus, iv, 0.25 h, after vs before; for change in vivo at 0.3 mg/kg: i.v. 300 μg/kg; for change in vivo at 1 mg/kg: i.v. 1000 μg/kg
# Description: Male Sprague Dawley rats (Crl: CDo BR) weighing 250-350 g were used. The animals were housed with free access to food and water and maintained on a forced 12 h alternating light-dark cycle at 22-24° C. for at least one week, except during performance of the experiment. To quantify urodynamic parameters in conscious rats, cystometrographic studies were performed using procedures previously described (Guarneri et al., Pharmacol. Res., 24:175, 1991). […] An approximately 10 mm long midline incision was made in the shaved and cleaned abdominal wall. The urinary bladder was gently freed from adhering tissues, emptied, and then cannulated, via an incision at the dome, with a polyethylene cannula (Portex PP30), which was permanently sutured with silk thread. The cannula was exteriorized through a subcutaneous tunnel in the retroscapular area, where it was connected with a plastic adapter to avoid the risk of removal by the animal. For intravenous (i.v.) injection of test compounds, a PE 50 polyethylene tubing filled with physiological saline was inserted into the jugular vein and exteriorized in the retroscapular area. The rats were utilized exclusively one day after implantation. On the day of the experiment, the rats were placed in Bollman's cages, after a stabilization period of 20 min, and the free tip of the bladder catheter was connected through a T-shaped tube to a pressure transducer (Bentley T 800/Marb P 82) and to a peristaltic pump (Gilson minipuls 2) for a continuous infusion, at the constant rate of 0.1 ml/min, of saline solution into the urinary bladder. The intraluminal pressure signal during infusion was continuously recorded on a polygraph (Battaglia Rangoni KO 380 with ADCl/T amplifier).
# Two urodynamic parameters were evaluated: bladder volume capacity (BVC) and micturition pressure (MP). BVC (in ml) is defined as the minimum volume infused after which detrusor contraction (followed by micturition) occurs. MP (in mm Hg) is defined as the maximal intravesical pressure induced by the contraction of detrusor during micturition. Basal BVC and MP values were calculated as the means of the first two recorded cystometrograms. At this point in the assay, the infusion was interrupted and the test compounds were administered. Fifteen minutes after intravenous administration two additional cystometrograms were recorded in each animal and the mean values of the two cystometrographic parameters were calculated. The statistical significance of the differences in urodynamic parameter values was evaluated by Student's t test for paired data.
# [3] = extrapolated dose inducing 10 min of disappearance of the contractions, intravenous, anaesthetized rats
# [4] = extrapolated dose inducing a reduction of the number of contractions >30% in 50% of treated rats, intravenous
Compound,pKi [1],"ED (10 min disappearance of contractions) [2, 3] [mg/kg]","ED50 [2, 4] [mg/kg]",BVC after treatment (urinary bladder; 15 min after i.v. 300 μg/kg) [mL],MP after treatment (urinary bladder; 15 min after i.v. 300 μg/kg) [mmHg],BVC after treatment (urinary bladder; 15 min after i.v. 1000 μg/kg) [mL],MP after treatment (urinary bladder; 15 min after i.v. 1000 μg/kg) [mmHg],change in vivo at 0.3 mg/kg (urinary bladder; read-out: BVC % of change) [%],change in vivo at 0.3 mg/kg (urinary bladder; read-out: MP % of change) [%],change in vivo at 1 mg/kg (urinary bladder; read-out: BVC % of change) [%],change in vivo at 1 mg/kg (urinary bladder; read-out: MP % of change) [%],ED (10 min disappearance of contractions) ([2]; iv) [mg/kg],ED50 ([2]; iv) [mg/kg]
"O=C(C1CCCCC1)N(CCN1CCN(c2cccc3[nH]ccc23)CC1)c1ccccc1OC(F)(F)F [Example 51, 1-[N-cyclohexylcarbonyl-N-(2-trifluoromethoxyphenyl)-2-aminoethyl]-4-(4-indolyl)piperazine]",9.62,0.276,0.2,0.84 ± 0.14,73.7 ± 6.1,1.08 ± 0.09,67.9 ± 5.6,27.7,-7.9,36.5,-13.3,–,–
"COc1ccccc1N1CCN(CCNc2ccccc2C#N)CC1 [Example 10, 1-[N-(2-cyanophenyl)-2-aminoethyl]-4-(2-methoxyphenyl)piperazine]",7.76,0.122,0.028,–,–,–,–,–,–,–,–,–,–
"COc1ccccc1N1CCN(CCN(C(=O)C2CCCCC2)c2ccccc2N)CC1 [Example 27, 1-[N-(2-aminophenyl)-N-cyclohexylcarbonyl-2-aminoethyl]-4-(2-methoxyphenyl) piperazine]",9.24,0.131,0.013,–,–,–,–,–,–,–,–,–,–
"COc1ccccc1NCCN1CCN(c2ccccc2OC)CC1 [Example 20, 1-[N-(2-methoxyphenyl)-2-aminoethyl]-4-(2-methoxyphenyl)piperazine]",7.61,–,–,–,–,–,–,–,–,–,–,0.097,0.025
"COc1ccccc1N(CCN1CCN(c2cccc3[nH]ccc23)CC1)C(=O)C1CCCCC1 [Example 48, 1-[N-cyclohexylcarbonyl-N-(2-methoxyphenyl)-2-aminoethyl]-4-(4-indolyl)piperazine]",9.34,0.04,0.014,–,–,–,–,–,–,–,–,–,–
